Laboratory results as given in PubChem BioAssay (NCI).
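Assay format: 96-well plates, 48-hour exposure. Abbreviation: GI50, concentration required for 50% inhibition of growth. TGI: total growth inhibition.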

Key:
Experiment in all cases: NCI-60 cell line screen, 48 h
[1] = test system: DU-145 prostate
[2] = test system: MCF7 breast
[3] = test system: MDA-MB-231 breast
[4] = test system: NCI-H226 lung
[5] = test system: SF-268 CNS
[6] = test system: SK-MEL-28 melanoma
[7] = test system: SK-MEL-5 melanoma
[8] = test system: SK-OV-3 ovarian
[9] = test system: SW-620 colon
[10] = test system: UO-31 renal

## Cc1cc(Cl)ccc1Nc1nc(C(F)(F)F)ccc1C(=O)N/N=C/c1ccc(Cl)cc1
[1]
  GI50: 2.56 µM
  TGI: 13.1 µM
[2]
  GI50: 1.55 µM
  TGI: 4.7 µM
[3]
  GI50: 1.09 µM
  TGI: 4.22 µM
[4]
  GI50: 1.21 µM
  TGI: 3.82 µM
[5]
  GI50: 1.35 µM
  TGI: 10.1 µM
[6]
  GI50: 2.18 µM
  TGI: 12.7 µM
[7]
  GI50: 1.52 µM
  TGI: 3.02 µM
[8]
  GI50: 1.69 µM
  TGI: 5.57 µM
[9]
  GI50: 2.15 µM
  TGI: 11 µM
[10]
  GI50: 1.5 µM
  TGI: 6.04 µM

## CCn1cc(C(=O)N/N=C/c2ccccc2)c(=O)c2cc(F)c(N3CCNC(C)C3)c(F)c21 (stereo not given)
[1]
  GI50: 1.88 µM
  TGI: 3.3 µM
[5]
  GI50: 1.96 µM
  TGI: 3.62 µM
[6]
  GI50: 1.78 µM
  TGI: 3.19 µM
[7]
  GI50: 1.76 µM
  TGI: 3.14 µM
[8]
  GI50: 1.81 µM
  TGI: 3.25 µM
[9]
  GI50: 1.76 µM
  TGI: 3.31 µM
[10]
  GI50: 1.55 µM
  TGI: 2.89 µM

## COc1ccc(-c2nc(/C=N/Nc3cc(C)nc4ccc(Cl)cc34)c(C)o2)cc1
[1]
  GI50: 1.75 µM
  TGI: 3.25 µM
[3]
  GI50: 2.03 µM
  TGI: 3.84 µM
[4]
  GI50: 2.35 µM
  TGI: 5.14 µM
[6]
  GI50: 1.8 µM
  TGI: 3.24 µM
[7]
  GI50: 1.77 µM
  TGI: 3.17 µM
[8]
  GI50: 1.65 µM
  TGI: 3.06 µM
[9]
  GI50: 1.6 µM
  TGI: 3.2 µM
[10]
  GI50: 1.6 µM
  TGI: 3 µM

## C1=CC=C2NCCCCCCCNC3=CC=CC=CC3=NCCCCCCCN=C2C=C1
[4]
  TGI: > 100 µM
[5]
  TGI: > 100 µM
[9]
  TGI: > 100 µM
[10]
  TGI: > 100 µM

## O=C(O/C(=C(/N=Nc1ccccc1)c1ccccc1)c1ccccc1)c1ccccc1
[4]
  TGI: > 100 µM
[6]
  TGI: > 100 µM
[7]
  TGI: > 100 µM
[8]
  TGI: > 100 µM
[9]
  TGI: > 100 µM
[10]
  TGI: > 100 µM

## O=C1c2cccc(NCCN=Cc3cc([N+](=O)[O-])ccc3O)c2C(=O)c2c(NCCN=Cc3cc([N+](=O)[O-])ccc3O)cccc21
[1]
  GI50: 3.94 µM
  TGI: 58.1 µM
[3]
  GI50: 3.12 µM
  TGI: 71.7 µM
[4]
  GI50: 3.34 µM
  TGI: > 100 µM
[5]
  GI50: 2.42 µM
  TGI: > 100 µM
[6]
  GI50: 14.9 µM
  TGI: > 100 µM
[8]
  GI50: 18.9 µM
  TGI: > 100 µM
[9]
  GI50: 1.49 µM
  TGI: > 100 µM
[10]
  GI50: 8.34 µM
  TGI: > 100 µM

## O=c1[nH]nc2ccccc2c1Cc1ccccc1
[4]
  TGI: > 100 µM
[5]
  TGI: > 100 µM
[6]
  TGI: > 100 µM
[7]
  TGI: > 100 µM
[8]
  TGI: > 100 µM
[9]
  TGI: > 100 µM
[10]
  TGI: > 100 µM

## CC(C)CCCC(C)[C@H]1CCC2[C@@H]3CCC4Nc5nocc5C[C@]4(C)C3CC[C@@]21C (stereo not given in full)
[4]
  TGI: 37.3 µM
[5]
  TGI: 36.8 µM
[7]
  TGI: 29.2 µM
[8]
  TGI: 34.8 µM
[9]
  TGI: 31.4 µM
[10]
  TGI: 27.9 µM

## CCC(C)[C@H]1O[C@]2(C=C[C@@H]1C)C[C@@H]1C[C@@H](C/C=C(\C)[C@@H](OC3C[C@H](OC)C(O[C@H]4C[C@H](OC)[C@@H](O)[C@H](C)O4)[C@H](C)O3)[C@@H](C)/C=C/C=C3\CO[C@@H]4[C@H](O)C(C)=C[C@@H](C(=O)O1)[C@]34O)O2 (stereo not given in full)
[1]
  GI50: 0.907 µM
  TGI: 1.62 µM
[2]
  GI50: 1.85 µM
  TGI: 5.72 µM
[3]
  GI50: 1.42 µM
  TGI: 5.81 µM
[4]
  GI50: 1.08 µM
  TGI: 3.27 µM
[5]
  GI50: 1.01 µM
  TGI: 2.14 µM
[6]
  GI50: 2.08 µM
  TGI: 7.23 µM
[7]
  GI50: 0.991 µM
  TGI: 2.28 µM
[8]
  GI50: 2.17 µM
  TGI: 8.23 µM
[10]
  GI50: 0.807 µM
  TGI: 1.73 µM

## Cc1ccc(-c2nc(C#N)c(S(=O)(=O)n3nc(C)cc3N)o2)cc1
[1]
  GI50: 7.8 µM
  TGI: 20.2 µM
[2]
  GI50: 3.07 µM
  TGI: 15.5 µM
[3]
  GI50: 2.42 µM
  TGI: 6.31 µM
[4]
  GI50: 15.6 µM
  TGI: 41.4 µM
[5]
  GI50: 16.4 µM
  TGI: 36.2 µM
[6]
  GI50: 12.7 µM
  TGI: 25.6 µM
[8]
  GI50: 27.5 µM
  TGI: 71.1 µM
[10]
  GI50: 1.74 µM
  TGI: 3.33 µM

## COCC(O)Cn1ccnc1[N+](=O)[O-] (stereo not given)
[4]
  TGI: > 100 µM
[5]
  TGI: > 100 µM
[6]
  TGI: > 100 µM
[8]
  TGI: > 100 µM
[9]
  TGI: > 100 µM
[10]
  TGI: > 100 µM

## O=C(O)c1cc2ccc3ccccc3c2oc1=O
[2]
  TGI: > 100 µM
[3]
  TGI: > 100 µM
[4]
  TGI: > 100 µM
[5]
  TGI: > 100 µM
[6]
  TGI: > 100 µM
[7]
  TGI: > 100 µM
[8]
  TGI: > 100 µM
[9]
  TGI: > 100 µM
[10]
  TGI: > 100 µM

## CC(=O)OC[C@]12CC[C@@H](C(=O)CBr)[C@@H]1[C@H]1CC[C@@H]3[C@@]4(C)CCCNC(C)(C)[C@@H]4CC[C@@]3(C)[C@]1(C)CC2
[1]
  GI50: 4.1 µM
  TGI: 14.2 µM
[2]
  GI50: 2.27 µM
  TGI: 6.21 µM
[3]
  GI50: 3.72 µM
  TGI: 17.9 µM
[5]
  GI50: 5.98 µM
  TGI: 23.9 µM
[6]
  GI50: 2.23 µM
  TGI: 4.23 µM
[7]
  GI50: 4.55 µM
  TGI: 15.8 µM
[8]
  GI50: 12.6 µM
  TGI: 26.1 µM
[9]
  GI50: 2.77 µM
  TGI: 8.06 µM
[10]
  GI50: 1.71 µM
  TGI: 4.04 µM

## OCC1C(/C=C/c2ccoc2)ON2CCCC12 (stereo not given)
[4]
  TGI: > 100 µM
[5]
  TGI: > 100 µM
[6]
  TGI: > 100 µM
[9]
  TGI: > 100 µM
[10]
  TGI: > 100 µM

## CC1CC2OC(=O)C(C)C2CC2(C)C(OC3OC(CO)C(O)C(O)C3O)OCCC12 (stereo not given)
[1]
  TGI: > 100 µM
[2]
  TGI: > 100 µM
[3]
  TGI: > 100 µM
[4]
  TGI: > 100 µM
[5]
  TGI: > 100 µM
[6]
  TGI: > 100 µM
[7]
  TGI: > 100 µM
[8]
  TGI: > 100 µM
[9]
  TGI: > 100 µM

## C[C@]12CCC(=O)C=C1CC[C@@H]1C2CC[C@]2(C)Nc3c(cnn3-c3ccccc3)CC12 (stereo not given in full)
[4]
  TGI: > 100 µM
[6]
  TGI: > 100 µM
[7]
  TGI: > 100 µM
[8]
  TGI: > 100 µM
[9]
  TGI: > 100 µM
[10]
  TGI: > 100 µM

## C=CCNC(=O)N(CCCC(NC(C)=O)C(=O)NCc1ccccc1)Cc1ccccc1 (stereo not given)
[4]
  TGI: > 100 µM
[5]
  TGI: > 100 µM
[6]
  TGI: > 100 µM
[7]
  TGI: > 100 µM
[8]
  TGI: > 100 µM
[9]
  TGI: > 100 µM
[10]
  TGI: > 100 µM

## CC(=O)NNc1nc(C)c(C(=O)/C=C/c2ccccc2Cl)s1
[4]
  TGI: > 100 µM
[5]
  TGI: > 100 µM
[6]
  TGI: > 100 µM
[7]
  TGI: > 100 µM
[8]
  TGI: > 100 µM
[9]
  TGI: > 100 µM
[10]
  TGI: > 100 µM
